Reference: patent US4970215A, “Substituted 4-(quinolin-2-yl-methoxy)phenyl-acetic acid derivatives and anti-allergic use thereof” (Bayer Aktiengesellschaft, priority 1988, dated 1990)

test system: lipoxygenase; experiment: Lipoxygenase inhibition: release of leucotriene B4 (LTB4) from polymorphonuclear rat leucocytes (PMN) after Ca-ionophor, reverse phase HPLC; format: cell-based; details: RP-HPLC, read-out: LO inhibition IC50
Description: The release of leucotriene B4 (LTB4) from polymorphonuclear rat leucocytes (PMN) following addition of substances and a Ca-ionophor was determined by means of reverse phase HPLC by the method of Borgeat, P. et al., Proc. Nat. Acad. Sci. (USA) 76, 2148-2152 (1979) as a measure of lipoxygenase inhibition. The values achieved in this test with some compounds according to the invention are listed by way of example in Table 1: […]

Row | Structure (SMILES) | IC50 [nM]
1 | O=C(O)C(CC1CC1)c1ccc(OCc2ccc3ccccc3n2)cc1 (stereo not drawn) [Example 7, 2-[4-(Quinolin-2-yl-methoxy)phenyl]-3-cyclopropylpropionic acid] | 140
2 | O=C(O)C(CC1CCCCC1)c1ccc(OCc2ccc3ccccc3n2)cc1 (stereo not drawn) [Example 8, 2-[4-(Quinolin-2-yl-methoxy)phenyl]-3-cyclohexylpropionic acid] | 10
3 | O=C(O)C(c1ccc(OCc2ccc3ccccc3n2)cc1)C1CCCC1 (stereo not drawn) [Example 9, 2-[4-(Quinolin-2-yl-methoxy)phenyl]-2-cyclopentylacetic acid] | 40
